Data: paper PMC9936582, “Sulfamate Acetamides as Self-Immolative Electrophiles for Covalent Ligand-Directed Release Chemistry” (Journal of the American Chemical Society, 2023)

Tested on: Mino cells
Experiment: Competitive pull-down proteomics with ibrutinib alkyne probe in Mino cells
Type: cell-based, human
Details: 1 µM compound 1 h
Method: (10 μM). This was followed by a reaction with biotin-azide using CuAAC, enrichment of the labeled proteins, and their quantification by tryptic digestion and LC/MS/MS analysis.
The samples were then precipitated with methanol: chloroform (1 mL of methanol, 250 μL of chloroform, and 750 μL of water), washed with 1 mL of methanol, and air-dried. The samples were solubilized and bound to streptavidin agarose beads in PBS for 3 h at 25 °C. The beads were washed, centrifuged, and resuspended in Tris 50 mM pH 8 and transferred to a clean Eppendorf tube. After this, the bound proteins were eluted by boiling with 5% SDS then reduced with DTT, alkylated with iodoacetamide, and digested with trypsin. The samples were run on LC/MS/MS. The detailed procedure is available in the Supplementary Information. The mass spectrometry proteomics data have been deposited to the ProteomeXchange Consortium via the PRIDE[67] partner repository with the dataset identifiers PXD038301 and PXD038375.
400 µL of 0.1% IGEPAL/PBS were added, and the beads were washed 3 times with 0.1% IGEPAL/PBS, 3 times PBS and 3 times water. The peptides were eluted by incubation with 200 µL of 50% acetonitrile + 0.1% TFA for 5 min, followed by two more portions of 100 µL of 50% acetonitrile + 0.1% TFA. The samples were dried by speedvac, and further purified using Oasis desalting columns (Waters), after which they were dried and run on the instrument.
Pull-down samples preparation […]
incubation with 10 μM “probe 4” for another hour. The samples were prepared in quadruplicates. The cells were washed with cold PBS, from the flasks and frozen. Then, each sample was lysed in 200 μL of […]
The protein in the supernatant was quantified using BCA. For each sample, 250 μL of 1.7 mg/mL was prepared. At this point, 5 μL of 5 mM biotin azide and 9 μL of 100 mM CuSO4/THPTA complex were added. The click reaction was initiated by the addition of 7.5 μL of 150 mM sodium ascorbate, and the samples are incubated at room temperature for 1 h. The samples were then precipitated with methanol/chloroform (1 mL methanol, 250 μL chloroform, 750 μL water), washed with 1 mL of methanol, and air-dried. […]
and heated to 95 °C for 5 min. The samples were then diluted to 1.5 mL with PBS, and 50 μL of streptavidin agarose beads, prewashed with 0.2% SDS in PBS, was added, followed by 3 h incubation at room temperature. Following the incubation, the beads were centrifuged at 2000g for 2 min and washed four times with the following buffers (4 mL in each wash): 2% SDS; 0.1% sodium deoxycholate, 1% Triton X-100, 0.5 M NaCl, 1 mM EDTA, 50 mM HEPES pH = 7.5; 0.25 M NaCl, 0.5% IGEPAL, 0.5% sodium deoxycholate, 1 mM EDTA, 10 mM Tris pH = 8.1; 50 mM Tris pH = 7.4, 50 mM NaCl. […]
with heating to 95 °C for 6 min and occasional vortexing. Finally, the beads were spun down (2 min 2000g) and 80 μL of supernatant was removed to separate tubes. […]
had cooled, 4 μL of iodoacetamide (0.2 M) were added, and the samples were incubated in the dark for 40 min at room temperature. […]
samples were diluted 6-fold with 90% methanol + 50 mM ammonium bicarbonate. The samples were then […]
loaded on S-trap micro columns (Protify), and the columns were washed three times with 150 μL of 90% methanol + 50 mM ammonium bicarbonate. Then, 20 μL of 0.05 μg/μL of trypsin in 50 mM ammonium bicarbonate was added to the columns and the samples were incubated at 47 °C for 90 min. Then, 40 μL of 50 mM ammonium bicarbonate was added, followed by centrifugation and addition of 1 μL of 0.5 μg/μL trypsin to the eluate, which was incubated at 37 °C overnight. The column itself was then eluted using 40 μL of 0.2% formic acid and 40 μL 0.2% formic acid in 50% acetonitrile into a separate tube, which was kept at 4 °C. The two eluates were then combined and evaporated. The samples were further desalted using […]

CNS(=O)(=O)OCC(=O)N1CCC[C@@H](n2nc(-c3ccc(Oc4ccccc4)cc3)c3c(N)ncnc32)C1 [3c]
Log2(Fold Change) (4F2_HUMAN): -0.003946
Log2(Fold Change) (AATM_HUMAN): 0.8443
Log2(Fold Change) (ACSF3_HUMAN): -0.02243
Log2(Fold Change) (AHNK_HUMAN): 0.1794
Log2(Fold Change) (ALG1_HUMAN): 0.4128
Log2(Fold Change) (ANXA1_HUMAN): -1.116
Log2(Fold Change) (APEX1_HUMAN): 0.3544
Log2(Fold Change) (ARP3_HUMAN;ARP3B_HUMAN;ARP3C_HUMAN): 0.7666
Log2(Fold Change) (AT1A1_HUMAN;AT1A2_HUMAN;AT1A4_HUMAN;ATP4A_HUMAN;AT12A_HUMAN): 0.2874
Log2(Fold Change) (ATP5H_HUMAN): 0.2249
Log2(Fold Change) (ATPK_HUMAN): 0.3336
Log2(Fold Change) (ATPO_HUMAN): 1.122
Log2(Fold Change) (ATX10_HUMAN): 1.148
Log2(Fold Change) (BST2_HUMAN): 1.515
Log2(Fold Change) (BZW1_HUMAN): 1.5907
Log2(Fold Change) (C1TM_HUMAN): 0.2312
Log2(Fold Change) (CALL5_HUMAN): -0.3562
Log2(Fold Change) (CD20_HUMAN): 0.973
Log2(Fold Change) (CD38_HUMAN): 0.2424
Log2(Fold Change) (CLCA_HUMAN): 0.2558
Log2(Fold Change) (CLH1_HUMAN;CLH2_HUMAN): -0.3445
Log2(Fold Change) (COX2_HUMAN): 0.13
Log2(Fold Change) (CRERF_HUMAN): -0.08019
Log2(Fold Change) (DD19B_HUMAN;DD19A_HUMAN): 0.602
Log2(Fold Change) (DDX3X_HUMAN;DDX3Y_HUMAN;DDX4_HUMAN): 0.1847
Log2(Fold Change) (DNJC7_HUMAN): -0.02484
Log2(Fold Change) (DSC1_HUMAN): -0.8463
Log2(Fold Change) (EF1B_HUMAN): -0.1869
Log2(Fold Change) (EPIPL_HUMAN): -1.263
Log2(Fold Change) (FPPS_HUMAN): -0.1485
Log2(Fold Change) (GCR_HUMAN): -0.05313
Log2(Fold Change) (GLYM_HUMAN;GLYC_HUMAN): 0.5085
Log2(Fold Change) (GSDMA_HUMAN): -0.7475
Log2(Fold Change) (HMCS1_HUMAN): 0.08713
Log2(Fold Change) (HXK2_HUMAN;HXK3_HUMAN): 0.7187
Log2(Fold Change) (IF4A1_HUMAN): -0.255
Log2(Fold Change) (IF4A3_HUMAN): 1.002
Log2(Fold Change) (IF4H_HUMAN): 0.7933
Log2(Fold Change) (IGLL5_HUMAN;IGL1_HUMAN;IGLC1_HUMAN): -1.242
Log2(Fold Change) (LAPM5_HUMAN): 0.4417
Log2(Fold Change) (LAT1_HUMAN): -0.2915
Log2(Fold Change) (LMNA_HUMAN): 0.31
Log2(Fold Change) (MATR3_HUMAN): 0.6026
Log2(Fold Change) (MBB1A_HUMAN): 0.2625
Log2(Fold Change) (MCCA_HUMAN): -0.03232
Log2(Fold Change) (MIC19_HUMAN): -0.1615
Log2(Fold Change) (MP2K7_HUMAN): 1.332
Log2(Fold Change) (NCEH1_HUMAN): 0.9366
Log2(Fold Change) (NT5D1_HUMAN): 0.9214
Log2(Fold Change) (NUCL_HUMAN): 0.1005
Log2(Fold Change) (OTUB1_HUMAN): -0.08587
Log2(Fold Change) (P121C_HUMAN;P121A_HUMAN): 0.1409
Log2(Fold Change) (PARK7_HUMAN): 0.4175
Log2(Fold Change) (PCKGM_HUMAN): -0.3825
Log2(Fold Change) (PEBP1_HUMAN): 0.1182
Log2(Fold Change) (PEPL_HUMAN): -0.4806
Log2(Fold Change) (PFKAL_HUMAN): -0.8784
Log2(Fold Change) (PGK1_HUMAN;PGK2_HUMAN): 0.09163
Log2(Fold Change) (PIP_HUMAN): -1.053
Log2(Fold Change) (PLAK_HUMAN;CTNB1_HUMAN): -0.3765
Log2(Fold Change) (POF1B_HUMAN): -0.7349
Log2(Fold Change) (PSA3_HUMAN): 0.7265
Log2(Fold Change) (PSB8_HUMAN): 0.6836
Log2(Fold Change) (RAB1A_HUMAN;RAB1B_HUMAN;RAB1C_HUMAN): 0.7505
Log2(Fold Change) (RANG_HUMAN;IPKB_HUMAN): -0.3363
Log2(Fold Change) (RAP1B_HUMAN;RAP1A_HUMAN;RP1BL_HUMAN;RAB3D_HUMAN): -0.2646
Log2(Fold Change) (RFTN1_HUMAN): 0.04464
Log2(Fold Change) (RL13A_HUMAN;R13P3_HUMAN): 0.8429
Log2(Fold Change) (RL18_HUMAN): 0.1972
Log2(Fold Change) (RLA1_HUMAN): -0.4322
Log2(Fold Change) (RN3P2_HUMAN): -0.1916
Log2(Fold Change) (RS28_HUMAN): 1.548
Log2(Fold Change) (RTN4_HUMAN): 0.4072
Log2(Fold Change) (RUVB2_HUMAN): 0.8939
Log2(Fold Change) (S38A1_HUMAN): 1.036
Log2(Fold Change) (S61A1_HUMAN;S61A2_HUMAN): 1.044
Log2(Fold Change) (SAE2_HUMAN): 0.8904
Log2(Fold Change) (SATT_HUMAN): 0.02917
Log2(Fold Change) (SCRB1_HUMAN): 0.4543
Log2(Fold Change) (SIAT1_HUMAN): 1.583
Log2(Fold Change) (SO4A1_HUMAN): 1.603
Log2(Fold Change) (SPB4_HUMAN): 1.011
Log2(Fold Change) (SPB12_HUMAN): 0.1706
Log2(Fold Change) (SSDH_HUMAN): 0.9154
Log2(Fold Change) (SUCB1_HUMAN): 0.5342
Log2(Fold Change) (TAP1_HUMAN): -1.372
Log2(Fold Change) (TAP2_HUMAN;ABCB8_HUMAN;ABCBA_HUMAN): -0.08664
Log2(Fold Change) (TBB2B_HUMAN;TBB2A_HUMAN): -0.7631
Log2(Fold Change) (TSN_HUMAN): 0.3727
Log2(Fold Change) (TX264_HUMAN): 0.3312
Log2(Fold Change) (UB2V2_HUMAN;UB2V1_HUMAN): 1.079
Log2(Fold Change) (UBP5_HUMAN): -0.3855
Log2(Fold Change) (UBP14_HUMAN): 1.084
Log2(Fold Change) (URP2_HUMAN): 1.649
Log2(Fold Change) (USMG5_HUMAN): 0.5625
Log2(Fold Change) (VDAC1_HUMAN): 0.3406
Log2(Fold Change) (VEZA_HUMAN): 1.904
Log2(Fold Change) (XPO2_HUMAN): 0.4199
Log2(Fold Change) (XPO5_HUMAN): -0.04737
Log2(Fold Change) (ZDHC8_HUMAN): -1.5861
